We go through 17 compounds from US20240307382A1, “MODULATORS OF THE INTEGRATED STRESS PATHWAY” (Calico Life Sciences LLC, priority 2017, published 2024).

SMILES strings stand for the structures.

The assay has as its system HEK293T cells carrying the ATF4 luciferase reporter. As to the kind of experiment: ATF4-Luc assay (ATF4 luciferase reporter, tunicamycin-treated cells). The assay is classed as cell-based. The conditions noted are these: Homo sapiens, HEK-293T, 1 μg/mL tunicamycin, 7 hours. In short, it runs like this: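 A stable HEK293T reporter line was made by placing the full-length human ATF4 5′-UTR ahead of a firefly luciferase sequence without its start methionine, delivered by retroviral transduction and puromycin selection. Cells were seeded at 30,000 per well in polylysine-coated 384-well plates, exposed next day to 1 μg/mL tunicamycin plus compound for 7 hours, and luminescence was read with One Glo.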
A word on the EC50: it is the concentration giving half of the maximal effect. For `O=C(COc1ccc(Cl)c(F)c1)NC12CC(NC(=O)c3ccc4c(n3)CCCC4)(C1)C2` [Compound 1093, N-{3-[2-(4-chloro-3-fluorophenoxy)acetamido]bicyclo[1.1.1]pentan-1-yl]-5,6,7,8-tetrahydroquinoline-2-carboxamide], the concentration giving a half-maximal response (EC50) was in the range of 0.05 to 0.25 µM.

In the case of `O=C(COc1ccc(C(F)(F)F)cc1)NC12CCC(NC(=O)c3cc(C(F)F)no3)(CC1)C[C@@H]2O` [Compound 1094, 3-(difluoromethyl)-N-[(3S)-3-hydroxy-4-{2-[4-(trifluoromethyl)phenoxy]acetamido}bicyclo[2.2.2]octan-1-yl]-1,2-oxazole-5-carboxamide], the EC50 was 0.05 to 0.25 µM.

In the case of `O=C(COc1ccc2c(c1)OC(F)(F)O2)NC12CCC(NC(=O)c3cc(C(F)F)no3)(CC1)C[C@@H]2O` [Compound 1095, N-[(3S)-4-{2-[(2,2-difluoro-2H-1,3-benzodioxol-5-yl)oxy]acetamido}-3-hydroxybicyclo[2.2.2]octan-1-yl]-3-(difluoromethyl)-1,2-oxazole-5-carboxamide], the EC50 was 0.05 to 0.25 µM.

In the case of `O=C(COc1ccc(Cl)c(C(F)(F)F)c1)NC12CCC(NC(=O)c3cc(C(F)F)no3)(CC1)C[C@@H]2O` [Compound 1096, N-[(3S)-4-{2-[4-chloro-3-(trifluoromethyl)phenoxy]acetamido}-3-hydroxybicyclo[2.2.2]octan-1-yl]-3-(difluoromethyl)-1,2-oxazole-5-carboxamide], the EC50 is less than 0.05 µM.

With `Cc1ccc(OCC(=O)NC23CCC(NC(=O)c4cc(C(F)F)no4)(CC2)C[C@@H]3O)cc1C` [Compound 1097, 3-(difluoromethyl)-N-{(3S)-4-[2-(3,4-dimethylphenoxy)acetamido]-3-hydroxybicyclo[2.2.2]octan-1-yl}-1,2-oxazole-5-carboxamide], the EC50 is 0.05 to 0.25 µM.

Turning to `Cc1ccc(OCC(=O)NC23CCC(NC(=O)c4cc(C(F)F)no4)(CC2)C[C@@H]3O)cc1` [Compound 1098, 3-(difluoromethyl)-N-{(3S)-3-hydroxy-4-[2-(4-methylphenoxy)acetamido]bicyclo[2.2.2]octan-1-yl}-1,2-oxazole-5-carboxamide], the EC50 lay within 0.05 to 0.25 µM.

`O=C(COc1ccc(F)cc1)NC12CCC(NC(=O)c3cc(C(F)F)no3)(CC1)C[C@@H]2O` [Compound 1099, 3-(difluoromethyl)-N-{(3S)-4-[2-(4-fluorophenoxy)acetamido]-3-hydroxybicyclo[2.2.2]octan-1-yl}-1,2-oxazole-5-carboxamide]: the EC50 was 0.05 to 0.25 µM.

Consider `O=C(COc1ccc(F)c(F)c1)NC12CCC(NC(=O)c3cc(C(F)F)no3)(CC1)C[C@@H]2O` [Compound 1100, 3-(difluoromethyl)-N-{(3S)-4-[2-(3,4-difluorophenoxy)acetamido]-3-hydroxybicyclo[2.2.2]octan-1-yl}-1,2-oxazole-5-carboxamide], for which the half-maximal effective concentration (EC50) was in the range of 0.05 to 0.25 µM.

Consider `Cc1cc(OCC(=O)NC23CCC(NC(=O)c4cc(C(F)F)no4)(CC2)C[C@@H]3O)ccc1Cl` [Compound 1101, N-{(3S)-4-[2-(4-chloro-3-methylphenoxy)acetamido]-3-hydroxybicyclo[2.2.2]octan-1-yl}-3-(difluoromethyl)-1,2-oxazole-5-carboxamide], for which the EC50 was less than 0.05 µM.

Take `O=C(COc1ccc(Cl)cc1)NC12CCC(NC(=O)c3cc(C(F)F)no3)(CC1)C[C@@H]2O` [Compound 1102, N-{(3S)4-[2-(4-chlorophenoxy)acetamido]-3-hydroxybicyclo[2.2.2]octan-1-yl}-3-(difluoromethyl)-1,2-oxazole-5-carboxamide]: the EC50 was less than 0.05 µM.

Consider `O=C(COc1ccc(Cl)c(Cl)c1)NC12CCC(NC(=O)c3cnc(C(F)F)o3)(CC1)C[C@@H]2O` [Compound 1103, N-{(3S)-4-[2-(3,4-dichlorophenoxy)acetamido]-3-hydroxybicyclo[2.2.2]octan-1-yl}-2-(difluoromethyl)-1,3-oxazole-5-carboxamide], for which the concentration giving a half-maximal response (EC50) was less than 0.05 µM.

As for `O=C(COc1ccc(Cl)c(F)c1)NC12CCC(NC(=O)c3cnc(C(F)F)o3)(CC1)C[C@@H]2O` [Compound 1104, N-{(3S)-4-[2-(4-chloro-3-fluorophenoxy)acetamido]-3-hydroxybicyclo[2.2.2]octan-1-yl}-2-(difluoromethyl)-1,3-oxazole-5-carboxamide], the concentration giving a half-maximal response (EC50) is less than 0.05 µM.

As to `O=C(COc1ccc(Cl)c(F)c1)NC12CCC(NC(=O)c3cc(CO)ccn3)(CC1)[C@@H](O)C2` [Compound 1105, N-{(2S)-4-[2-(4-chloro-3-fluorophenoxy)acetamido]-2-hydroxybicyclo[2.2.2]octan-1-yl}-4-(hydroxymethyl)pyridine-2-carboxamide], the EC50 is less than 0.05 µM.

Consider `CCc1ncc(C(=O)NC23CCC(NC(=O)COc4ccc(Cl)c(F)c4)(CC2)C[C@@H]3O)o1` [Compound 1106, N-{(2S)-4-[2-(4-chloro-3-fluorophenoxy)acetamido]-2-hydroxybicyclo[2.2.2]octan-1-yl}-2-ethyl-1,3-oxazole-5-carboxamide], for which the concentration giving a half-maximal response (EC50) is less than 0.05 µM.

As for `Cc1nn(C)cc1C(=O)NC12CCC(NC(=O)COc3ccc(Cl)c(F)c3)(CC1)C[C@@H]2O` [Compound 1107, N-{(2S)-4-[2-(4-chloro-3-fluorophenoxy)acetamido]-2-hydroxybicyclo[2.2.2]octan-1-yl}-1,3-dimethyl-1H-pyrazole-4-carboxamide], the EC50 was greater than 2 µM.

Consider `Cc1nn(C)cc1C(=O)NC12CCC(NC(=O)COc3ccc(Cl)c(F)c3)(CC1)[C@@H](O)C2` [Compound 1108, N-{(3S)-4-[2-(4-chloro-3-fluorophenoxy)acetamido]-3-hydroxybicyclo[2.2.2]octan-1-yl}-1,3-dimethyl-1H-pyrazole-4-carboxamide], for which the EC50 fell in the range of 0.05 to 0.25 µM.

With `O=C(COc1ccc(Cl)c(F)c1)NC12CCC(NC(=O)c3cc4cc(Cl)ccc4o3)(CC1)[C@@H](O)C2` [Compound 1109, 5-chloro-N-{(2S)-4-[2-(4-chloro-3-fluorophenoxy)acetamido]-2-hydroxybicyclo[2.2.2]octan-1-yl}-1-benzofuran-2-carboxamide], the concentration giving a half-maximal response (EC50) is less than 0.05 µM.
